Reference: patent US11589590B2, “Antimicrobial coatings and methods of making and using thereof” (GEORGIA TECH RESEARCH CORPORATION, priority 2016, dated 2023)

Tests used:
[1] = Fragmentation of pyridine adducts in deuterated aqueous buffer followed by 1H NMR; type: physicochemical
Text: The fragmentation of cationic adducts was followed by ^1H NMR in deuterated buffer, with the relative concentration of each species established by integration of unique resonances. Each adduct in Table 3 and Table 4 was thus examined in three independent runs. […]

CHO-K1 cells = type: cell-based; settings: for concentrations at which nontoxic: Chinese hamster
Method: Approximately 1×10^4 CHO-K1 cells/well were plated in a 96-well plate in 100 μL of complete growth media, and adhered overnight at 37° C. The media was then replaced by 100 μL of polymer or monomer in serum-free media at the indicated concentration. Full media was replenished after 4 or 24 h. Viability was measured by MTT assay, with non-treated cells assigned as 100% viability. The results are plotted in FIGS. 11A-11D and 12A-12H.

[2] = pseudo first order fragmentation at 50° C., deuterated buffer
[3] = pseudo first order fragmentation at 37° C.

Row | SMILES | krel ([1]; 50° C., relative to 5e = 1.00) | kfrag [1, 2] | krel ([1]; 37° C., relative to 5i = 1) | kfrag [1, 3] | concentration up to which no effect (toxicity) (CHO-K1 cells) | concentrations at which nontoxic (CHO-K1 cells)
1 | COC(=O)c1ccc[n+](C2CCC3SC2CCC3[n+]2cccc(C(=O)OC)c2)c1.O=[N+]([O-])[O-].O=[N+]([O-])[O-] (centres unmarked) [Compound 5b, 2,6-di-3-methoxycarbonylpyridinium-9-thiabicyclo[3.3.1]nonane dinitrate] | 1.86 | (3.03 ± 0.38) × 10^−2 h^−1 |  |  |  | 
2 | COC(=O)c1cc[n+](C2CCC3SC2CCC3[n+]2ccc(C(=O)OC)cc2)cc1.O=[N+]([O-])[O-].O=[N+]([O-])[O-] (centres unmarked) [Compound 5c, 2,6-di-4-methoxycarbonylpyridinium-9-thiabicyclo[3.3.1]nonane dinitrate] | 2.25 | (3.66 ± 0.33) × 10^−2 h^−1 | 0.3 | (0.16 ± 0.01) × 10^−2 h^−1 | ≥ 500 µM | 
3 | NC(=O)c1ccc[n+](C2CCC3SC2CCC3[n+]2cccc(C(N)=O)c2)c1.O=[N+]([O-])[O-].O=[N+]([O-])[O-] (centres unmarked) [Compound 5d, 2,6-di-3-carbamylpyridinium-9-thiabicyclo[3.3.1]nonane dinitrate] | 1.95 | (3.18 ± 0.32) ×10^−2 h^−1 |  |  |  | 
4 | NC(=O)c1cc[n+](C2CCC3SC2CCC3[n+]2ccc(C(N)=O)cc2)cc1.O=[N+]([O-])[O-].O=[N+]([O-])[O-] (centres unmarked) [Compound 5e, 2,6-di-4-carbamylpyridinium-9-thiabicyclo[3.3.1]nonane dinitrate] | 1.00 | (1.62 ± 0.10) ×10^−2 h^−1 |  |  |  | 
5 | Brc1ccc[n+](C2CCC3SC2CCC3[n+]2cccc(Br)c2)c1.O=[N+]([O-])[O-].O=[N+]([O-])[O-] (centres unmarked) [Compound 5f, 2,6-di-3-bromopyridinium-9-thiabicyclo[3.3.1]nonane dinitrate] | 4.05 | (6.59 ± 0.58) × 10^−2 h^−1 |  |  |  | 
6 | FC(F)(F)c1ccc[n+](C2CCC3SC2CCC3[n+]2cccc(C(F)(F)F)c2)c1.O=[N+]([O-])[O-].O=[N+]([O-])[O-] (centres unmarked) [Compound 5g, 2,6-di-3-trifluoromethylpyridinium-9-thiabicyclo[3.3.1]nonane dinitrate] | 46.2 | (74.8 ± 5.4) × 10^−2 h^−1 | 11 | (5.87 ± 0.71) × 10^−2 h^−1 |  | 
7 | N#Cc1ccc[n+](C2CCC3SC2CCC3[n+]2cccc(C#N)c2)c1.O=[N+]([O-])[O-].O=[N+]([O-])[O-] (centres unmarked) [Compound 5h, 2,6-di-3-cyanopyridinium-9-thiabicyclo[3.3.1]nonane dinitrate] | 6.68 | (10.8 ± 0.98) × 10^−2 h^−1 | 2.1 | (1.14 ± 0.16) × 10^−2 h^−1 |  | 
8 | COc1cc(Br)c[n+](C2CCC3SC2CCC3[n+]2cc(Br)cc(OC)c2)c1.O=[N+]([O-])[O-].O=[N+]([O-])[O-] (centres unmarked) [Compound 5i, 2,6-di-3-bromo-5-methoxylpyridinium-9-thiabicyclo[3.3.1]nonane dinitrate] | 4.64 | (7.51 ± 0.53) × 10^−2 h^−1 | 1 | (0.55 ± 0.04) × 10^−2 h^−1 | ≥ 500 µM | 
9 | NC(=O)c1cc(Br)c[n+](C2CCC3SC2CCC3[n+]2cc(Br)cc(C(N)=O)c2)c1.O=S(=O)([O-])C(F)(F)F.O=S(=O)([O-])C(F)(F)F (centres unmarked) [Compound 5j, 2,6-di-3-bromo-5-carbamylpyridinium-9-thiabicyclo[3.3.1]nonane ditriflate] |  |  | 17 | (9.34 ± 0.87) × 10^−2 h^−1 |  | 
10 | COC(=O)c1cc(C(=O)OC)c[n+](C2CCC3SC2CCC3[n+]2cc(C(=O)OC)cc(C(=O)OC)c2)c1.O=S(=O)([O-])C(F)(F)F.O=S(=O)([O-])C(F)(F)F (centres unmarked) [Compound 5k, 2,6-di-3,5-dimethoxycarbonylpyridinium-9-thiabicyclo[3.3.1]nonane ditriflate] |  |  | 22 | (11.9 ± 1.13) × 10^−2 h^−1 |  | 
11 | COC(=O)c1cc(Br)c[n+](C2CCC3SC2CCC3[n+]2cc(Br)cc(C(=O)OC)c2)c1.O=S(=O)([O-])C(F)(F)F.O=S(=O)([O-])C(F)(F)F (centres unmarked) [Compound 5l, 2,6-di-3-bromo-5-methoxycarbonylpyridinium-9-thiabicyclo[3.3.1]nonane ditriflate] |  |  | 20 | (10.9 ± 1.81) × 10^−2 h^−1 |  | 
12 | c1cc(CCCc2ccncc2)ccn1 [monomer 2a] |  |  |  |  |  | below 500 μM
13 | O=C(OCCCOC(=O)c1ccncc1)c1ccncc1 [monomer 2c] |  |  |  |  |  | below 500 μM
14 | Brc1cncc(OCCCOc2cncc(Br)c2)c1 [monomer 2i, 1,3-bis((5-bromopyridin-3-yl)oxy)propane] |  |  |  |  |  | below 500 μM
